Each block holds one compound with its values, some of them ahead of it.
Tests used:
EGFR L858R/T790M = tested on: EGFR L858R/T790M; design: method as in PMID 32599930; conditions: ref [9]; cited from earlier work
H1975 (EGFR L858R/T790M) = tested on: H1975 (EGFR L858R/T790M); design: method as in PMID 32599930; conditions: WST-8, ref [9]; cited from earlier work
H3255 (EGFR L858R) = tested on: H3255 (EGFR L858R); design: method as in PMID 32599930; conditions: WST-8, ref [9]; cited from earlier work
H441 (wild-type EGFR) = tested on: H441 (wild-type EGFR); design: method as in PMID 32599930; conditions: WST-8, ref [9]; cited from earlier work
H1975 and H441 tumors = experiment: Biodistribution of double tracers in tumor-bearing mice; format: in vivo, BALB/c nu/nu mice
Protocol: Six weeks old male ddY mice and four weeks old female BALB/c nu/nu mice were purchased from Japan SLC Inc. (Hamamatsu, Japan). Tumor-bearing mice were prepared by subcutaneous injection of cells suspended in 100 μL medium to the female BALB/c nu/nu mice. H1975 cells (5 × 10^6 cells) were implanted in the right shoulder, and H441 cells (3 × 10^6 cells) were implanted in the left shoulder. The tumor reached palpable size after post-inoculation 12 and 9 days for H1975 and H441, respectively.
(§1) One month later, ^125I activity was determined.

[1] = Determination of partition coefficient (n-octanol / 0.1 M phosphate buffer pH 7.4); format: physicochemical
Protocol: To determine the lipophilicity, the partition coefficient of [^77Br]9 was measured as described previously.

[2] = Stability assessment in PBS and murine plasma; format: in vitro ADME, mouse; conditions: 1 h, 37 °C
Protocol: The stability profile of [^77Br]9 in phosphate-buffered saline (PBS) and murine plasma is presented in Supporting Information (Figure S2). [^77Br]9 was >80% intact in PBS and murine plasma after incubation for 1 h at 37 °C. Its purity decreased to 57% after 24 h of incubation.
To confirm the stability, we measured the purity of radiotracer after incubation in PBS and mouse plasma, respectively, as described previously.

[3] = Biodistribution of double tracers in normal mice; format: in vivo; conditions: ddY mice
Protocol: as §1

[4] = tested on: H1975 (L858R/T790M double mutations EGFR); experiment: Cellular uptake and blocking study, H1975; format: cell-based, human
Protocol: H1975 (1 × 10^5 cells/well), H441 (1 × 10^5 cells/well), and H3255 (2 × 10^5 cells/well) NSCLC cells were cultured in 6 well plates. Cells were incubated in medium with 10% FBS and 100 IU/mL penicillin–streptomycin at 37 °C in a humidified atmosphere with 5% CO2 for 24 h. […] The cells were dissolved by a 1.0 M NaOH aqueous solution (0.5 mL × 2). The cell lysate was transferred into a test tube. The radioactivity of ^77Br was measured by an auto well gamma counter at a 100–600 keV energy range. […] The BCA protein assay kit protocol was used to determine the protein concentration.

SMILES: C=CC(=O)Nc1cc(I)cc(Nc2nc(Nc3ccc(N4CCN(C(C)=O)CC4)cc3OC)ncc2C(F)(F)F)c1 [ICO1686]
selectivity toward EGFR L858R/T790M compared with wild-type EGFR (EGFR L858R/T790M): high selectivity
IC50 (H1975 (EGFR L858R/T790M)): 200 ± 50 nM
IC50 (H3255 (EGFR L858R)): 500 ± 210 nM
IC50 (H441 (wild-type EGFR)): 1840 ± 440 nM

Biodistribution, Blood (H1975 and H441 tumors; 1 h after i.v. injection): 5.64 % ID/g
Biodistribution, Bone (H1975 and H441 tumors; 1 h after i.v. injection): 1.93 % ID/g
Biodistribution, Brain (H1975 and H441 tumors; 1 h after i.v. injection): 1.49 % ID/g
Biodistribution, H441 tumor (H1975 and H441 tumors; 1 h after i.v. injection): 3.71 % ID/g
Biodistribution, H1975 tumor (H1975 and H441 tumors; 1 h after i.v. injection): 4.51 % ID/g
Biodistribution, Heart (H1975 and H441 tumors; 1 h after i.v. injection): 5.36 % ID/g
Biodistribution, Kidney (H1975 and H441 tumors; 1 h after i.v. injection): 7.75 % ID/g
Biodistribution, Large intestine (H1975 and H441 tumors; 1 h after i.v. injection): 24.33 % ID/g
Biodistribution, Liver (H1975 and H441 tumors; 1 h after i.v. injection): 15.89 % ID/g
Biodistribution, Lung (H1975 and H441 tumors; 1 h after i.v. injection): 11.42 % ID/g
Biodistribution, Muscle (H1975 and H441 tumors; 1 h after i.v. injection): 3.42 % ID/g
Biodistribution, Pancreas (H1975 and H441 tumors; 1 h after i.v. injection): 12.95 % ID/g
Biodistribution, Small intestine (H1975 and H441 tumors; 1 h after i.v. injection): 64.52 % ID/g
Biodistribution, Spleen (H1975 and H441 tumors; 1 h after i.v. injection): 9.19 % ID/g
Biodistribution, Stomach (H1975 and H441 tumors; 1 h after i.v. injection): 1.31 % ID/organ
Biodistribution, Blood (H1975 and H441 tumors; 6 h after i.v. injection): 5.35 % ID/g
Biodistribution, Bone (H1975 and H441 tumors; 6 h after i.v. injection): 1.95 % ID/g
Biodistribution, Brain (H1975 and H441 tumors; 6 h after i.v. injection): 1.39 % ID/g
Biodistribution, H441 tumor (H1975 and H441 tumors; 6 h after i.v. injection): 3.30 % ID/g
Biodistribution, H1975 tumor (H1975 and H441 tumors; 6 h after i.v. injection): 3.48 % ID/g
Biodistribution, Heart (H1975 and H441 tumors; 6 h after i.v. injection): 2.99 % ID/g
Biodistribution, Kidney (H1975 and H441 tumors; 6 h after i.v. injection): 4.91 % ID/g
Biodistribution, Large intestine (H1975 and H441 tumors; 6 h after i.v. injection): 59.40 % ID/g
Biodistribution, Liver (H1975 and H441 tumors; 6 h after i.v. injection): 6.76 % ID/g
Biodistribution, Lung (H1975 and H441 tumors; 6 h after i.v. injection): 6.29 % ID/g
Biodistribution, Muscle (H1975 and H441 tumors; 6 h after i.v. injection): 1.79 % ID/g
Biodistribution, Pancreas (H1975 and H441 tumors; 6 h after i.v. injection): 4.28 % ID/g
Biodistribution, Small intestine (H1975 and H441 tumors; 6 h after i.v. injection): 12.46 % ID/g
Biodistribution, Spleen (H1975 and H441 tumors; 6 h after i.v. injection): 2.04 % ID/g
Biodistribution, Stomach (H1975 and H441 tumors; 6 h after i.v. injection): 1.27 % ID/organ
logP [1]: 1.72 ± 0.21
intact in PBS ([2]; PBS): > 80%
intact in murine plasma ([2]; murine plasma): > 80%
Biodistribution, Blood ([3]; 10 min after i.v. injection): 3.57 % ID/g
Biodistribution, Bone ([3]; 10 min after i.v. injection): 2.76 % ID/g
Biodistribution, Brain ([3]; 10 min after i.v. injection): 0.45 % ID/g
Biodistribution, Heart ([3]; 10 min after i.v. injection): 4.57 % ID/g
Biodistribution, Kidney ([3]; 10 min after i.v. injection): 11.68 % ID/g
Biodistribution, Large intestine ([3]; 10 min after i.v. injection): 2.83 % ID/g
Biodistribution, Liver ([3]; 10 min after i.v. injection): 11.04 % ID/g
Biodistribution, Lung ([3]; 10 min after i.v. injection): 8.72 % ID/g
Biodistribution, Muscle ([3]; 10 min after i.v. injection): 3.18 % ID/g
Biodistribution, Pancreas ([3]; 10 min after i.v. injection): 3.78 % ID/g
Biodistribution, Small intestine ([3]; 10 min after i.v. injection): 25.38 % ID/g
Biodistribution, Spleen ([3]; 10 min after i.v. injection): 5.11 % ID/g
Biodistribution, Stomach ([3]; 10 min after i.v. injection): 6.17 % ID/organ
Biodistribution, Blood ([3]; 1 h after i.v. injection): 3.24 % ID/g
Biodistribution, Bone ([3]; 1 h after i.v. injection): 1.66 % ID/g
Biodistribution, Brain ([3]; 1 h after i.v. injection): 0.95 % ID/g
Biodistribution, Heart ([3]; 1 h after i.v. injection): 2.93 % ID/g
Biodistribution, Kidney ([3]; 1 h after i.v. injection): 4.21 % ID/g
Biodistribution, Large intestine ([3]; 1 h after i.v. injection): 3.18 % ID/g
Biodistribution, Liver ([3]; 1 h after i.v. injection): 3.83 % ID/g
Biodistribution, Lung ([3]; 1 h after i.v. injection): 4.97 % ID/g
Biodistribution, Muscle ([3]; 1 h after i.v. injection): 2.02 % ID/g
Biodistribution, Pancreas ([3]; 1 h after i.v. injection): 3.58 % ID/g
Biodistribution, Small intestine ([3]; 1 h after i.v. injection): 26.49 % ID/g
Biodistribution, Spleen ([3]; 1 h after i.v. injection): 4.83 % ID/g
Biodistribution, Stomach ([3]; 1 h after i.v. injection): 7.00 % ID/organ
Biodistribution, Blood ([3]; 4 h after i.v. injection): 3.19 % ID/g
Biodistribution, Bone ([3]; 4 h after i.v. injection): 1.54 % ID/g
Biodistribution, Brain ([3]; 4 h after i.v. injection): 0.74 % ID/g
Biodistribution, Heart ([3]; 4 h after i.v. injection): 1.87 % ID/g
Biodistribution, Kidney ([3]; 4 h after i.v. injection): 2.81 % ID/g
Biodistribution, Large intestine ([3]; 4 h after i.v. injection): 47.73 % ID/g
Biodistribution, Liver ([3]; 4 h after i.v. injection): 3.72 % ID/g
Biodistribution, Lung ([3]; 4 h after i.v. injection): 5.08 % ID/g
Biodistribution, Muscle ([3]; 4 h after i.v. injection): 1.13 % ID/g
Biodistribution, Pancreas ([3]; 4 h after i.v. injection): 3.04 % ID/g
Biodistribution, Small intestine ([3]; 4 h after i.v. injection): 5.23 % ID/g
Biodistribution, Spleen ([3]; 4 h after i.v. injection): 2.92 % ID/g
Biodistribution, Stomach ([3]; 4 h after i.v. injection): 6.68 % ID/organ
Biodistribution, Blood ([3]; 24 h after i.v. injection): 1.99 % ID/g
Biodistribution, Bone ([3]; 24 h after i.v. injection): 0.89 % ID/g
Biodistribution, Brain ([3]; 24 h after i.v. injection): 0.42 % ID/g
Biodistribution, Heart ([3]; 24 h after i.v. injection): 0.80 % ID/g
Biodistribution, Kidney ([3]; 24 h after i.v. injection): 1.33 % ID/g
Biodistribution, Large intestine ([3]; 24 h after i.v. injection): 0.98 % ID/g
Biodistribution, Liver ([3]; 24 h after i.v. injection): 1.04 % ID/g
Biodistribution, Lung ([3]; 24 h after i.v. injection): 1.62 % ID/g
Biodistribution, Muscle ([3]; 24 h after i.v. injection): 0.47 % ID/g
Biodistribution, Pancreas ([3]; 24 h after i.v. injection): 1.13 % ID/g
Biodistribution, Small intestine ([3]; 24 h after i.v. injection): 1.00 % ID/g
Biodistribution, Spleen ([3]; 24 h after i.v. injection): 1.14 % ID/g
Biodistribution, Stomach ([3]; 24 h after i.v. injection): 2.21 % ID/organ
eliminated in feces ([3]; 24 h postinjection): 35%
SMILES: C=CC(=O)Nc1cc([77Br])cc(Nc2nc(Nc3ccc(N4CCN(C(C)=O)CC4)cc3OC)ncc2C(F)(F)F)c1 [[^77Br]9]
accumulation in H1975 versus H3255 and H441 ([4]; 4 h of incubation): significantly higher
reduction of uptake upon pretreatment with CO-1686 ([4]; H1975): ~60%
accumulation of radioactivity with pretreatment with excess CO-1686 ([4]; H1975, 4 h, CO-1686 100 µM blocking): 56.9 % dose/mg protein
accumulation of radioactivity (cell uptake) ([4]; H1975, 4 h incubation): 136.3 % dose/mg protein
effect of gefitinib on uptake ([4]; H1975, gefitinib 100 µM blocking): not significantly reduced

SMILES: C=CC(=O)Nc1cccc(Nc2nc(Nc3ccc(N4CCN(C(C)=O)CC4)cc3OC)ncc2C(F)(F)F)c1 [CO-1686, rociletinib]
selectivity toward EGFR L858R/T790M compared with wild-type EGFR (EGFR L858R/T790M): high selectivity
IC50 (H1975 (EGFR L858R/T790M)): 140 ± 50 nM
IC50 (H3255 (EGFR L858R)): 150 ± 20 nM
IC50 (H441 (wild-type EGFR)): 260 ± 40 nM

— paper PMC7998589, “A Radiobrominated Tyrosine Kinase Inhibitor for EGFR with L858R/T790M Mutations in Lung Carcinoma” (Pharmaceuticals, 2021)
